Values quoted from earlier work, collected in patent US12589095B2, “Unit dosage form for transmucosal drug delivery of an active pharmaceutical ingredient” (Primo Pharmatech LLC, priority 2019, dated 2026).

conditions: known / published value; cited from earlier work

Compared with Polyethylene glycol 400 monolaurate, “Polyoxyethylene monostearate [Polyoxyethylene monostearate (Myrj 45)]” is lower in HLB: 12.8 for the first, 10.8 for the second.

Compared with `CCCCCCCC/C=C\CCCCCCCC(=O)O` [Oleic acid], `CCCCCCCCCCCCCCCCCC(=O)OCC(O)CO` (stereo not shown) [Glyceryl monostearate (Tegin), Glyceryl monostearate] is higher in HLB: 1.0 for the first, 4.7 for the second.

First: CCCCCCCCCCCCCCCCCC(=O)OCC(O)CO (stereo not shown) [Glyceryl monostearate]
Second: CCCCCCCCCCCCCCCCCC(=O)OCCOCCO [Diethylene glycol monostearate]
The HLB of the first is lower: 2.1 for the first, 4.3 for the second.

First: CCCCCCCCCCCC(=O)OCCOCCO [Diethylene glycol monolaurate]
Second: Glyceryl dioleate
The HLB of the first is higher: 5.5 for the first, 1.8 for the second.

Compared with `CCCCCCCC/C=C\CCCCCCCC(=O)OCC(O)CO` (stereo not shown) [Glyceryl monooleate], `CCCCCCCC/C=C\CCCCCCCC(=O)[O-].[Na+]` [Sodium oleate] is higher in HLB: 3.4 for the first, 16.9 for the second.

Going from `CCCCCCCC/C=C\CCCCCCCC(=O)[O-].[K+]` [Potassium oleate] to Polyoxyethylene sorbitol wax derivative, the HLB falls from 18.0 to 2.0.

Compared with “Polyoxyethylene lauryl ether [Polyoxyethylene lauryl ether (G-3705)]”, “Polyethylene lauryl ether [Polyethylene lauryl ether (Brij 30)]” is lower in HLB: 10.5 for the first, 8.6 for the second.

For sorbitan monooleate [Span 80], the HLB is listed as 4.3.

In the case of Sorbitan monolaurate [SPAN 20], the HLB is given as “SPAN 20 (HLB8.6)”.

same assay, conditions: known / published value; listed as Oleic Acid; cited from earlier work

In the case of `CCCCCCCC/C=C\CCCCCCCC(=O)O` [Oleic acid], the HLB is given as 1.

same assay, conditions: known / published value; listed as Sorbitan mono-oleate (Span 80); cited from earlier work

For sorbitan monooleate [Span 80], the HLB is listed as 3.8.

same assay, conditions: known / published value; listed as Sorbitan monolaurate (Span 20); cited from earlier work

For Sorbitan monolaurate [SPAN 20], the HLB is given as 6.1.
